Each structure is given as a SMILES string.

For data set [1], the target named is T1, digoxigenin-labelled MAA lectin (Maackia amurensis, UniProt P0DKL3).
T1 sequence (P0DKL3 30-278 limits assumed): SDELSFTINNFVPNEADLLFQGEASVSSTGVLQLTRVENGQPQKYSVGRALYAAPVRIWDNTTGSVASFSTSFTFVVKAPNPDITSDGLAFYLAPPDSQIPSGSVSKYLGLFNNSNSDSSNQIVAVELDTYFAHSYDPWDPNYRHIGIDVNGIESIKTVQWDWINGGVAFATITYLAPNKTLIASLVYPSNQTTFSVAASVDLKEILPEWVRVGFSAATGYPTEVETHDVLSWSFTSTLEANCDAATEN
In words: Detection of immobilized sugar derivative with digoxigenin-labelled MAA lectin on streptavidin microtitre plate. The conditions noted are these: 0.5-20 pmol/well, read at 405 nm. Format: binding. The method, then: Derivatized N-acetyl-neuraminosyl-2,3-D-lactose in TBS is incubated for 4 h at room temperature on a microtitre plate coated with streptavidin as a model substance to test the standard conditions. After immobilization of the sugar derivative (0.5-20 pmol/well in the microtitre plate; dissolved in TBS) the wells are washed five times with 0.25 ml TBS. In order to bind the digoxigenin-labelled MAA lectin (specific for N-acetyl-neuraminosyl-α(2-3)Gal residues) 1-10 μg of the lectin is dissolved in 1 ml TBSM (TBSM=TBS containing 1 mM MgCl2, 1 mM MnCl2 and 1 mM CaCl2) containing 0.5% blocking reagent (Boehringer Mannheim) and subsequently 0.2 ml of the lectin solution/well is incubated for 1 hour at room temperature while shaking gently. After the lectin has bound the wells are washed five times with 0.25 ml buffer (TBST=TBS containing 0.1% Tween-20®). […] The colour development is read at 405 nm and RT after an incubation period of ca. 20 to 30 min. […]
For the detection of N-acetyl-neuraminosyl-2,3-D-lactose the wells are washed five times with 0.25 ml TBS after immobilization of the sugar derivative (0.5-20 pmol/well in the microtitre plate; dissolved in TBS). […] The colour development is read at 405 nm and RT after an incubation period of ca. 20 to 30 min. […]

Data set [2] concerns the target digoxigenin-labelled SNA lectin (Sambucus nigra, UniProt Q41358). Format: binding. Particulars: saccharide added to wells containing SNA as the lectin; fetuin sugar derivatives (10 pmol).
Data set [3] addresses T1, digoxigenin-labelled MAA lectin. In words: Inhibition of digoxigenin-labelled MAA lectin binding to immobilized fetuin sugar derivatives on streptavidin microtitre plate. Particulars: fetuin sugar derivatives (10 pmol) on the MTP.
Data set [4] is described as follows: Stability of marker and saccharide conjugates (HPLC analysis). Type of data set: physicochemical. The conditions noted are these: after one week in MeOH at 25° C.

Sequence of digoxigenin-labelled SNA lectin (Q41358 309-570 limits assumed): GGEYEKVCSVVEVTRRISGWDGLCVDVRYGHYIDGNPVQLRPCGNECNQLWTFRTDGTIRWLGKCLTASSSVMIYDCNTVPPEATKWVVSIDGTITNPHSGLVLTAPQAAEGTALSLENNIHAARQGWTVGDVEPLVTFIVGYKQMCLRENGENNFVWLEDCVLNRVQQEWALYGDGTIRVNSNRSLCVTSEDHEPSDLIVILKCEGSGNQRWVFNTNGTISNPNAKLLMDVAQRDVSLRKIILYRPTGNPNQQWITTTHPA
Sequence of digoxigenin-labelled SNA lectin (Q41358 29-292 partner limits assumed): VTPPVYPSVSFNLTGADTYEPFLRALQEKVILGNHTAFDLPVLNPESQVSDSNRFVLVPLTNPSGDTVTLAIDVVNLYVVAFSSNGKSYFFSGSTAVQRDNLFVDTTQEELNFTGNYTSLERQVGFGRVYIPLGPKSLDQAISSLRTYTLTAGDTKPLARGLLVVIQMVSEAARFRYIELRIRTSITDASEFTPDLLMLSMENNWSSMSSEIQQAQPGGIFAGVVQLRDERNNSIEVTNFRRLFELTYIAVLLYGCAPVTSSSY

As for `CC(=O)NC1C(O)CC(OC2C(O)C(CO)OC(OC3C(CO)OC(NNC(=O)NCCNC(=O)c4ccccc4N=Nc4ccc(O)cc4)C(O)C3O)C2O)(C(=O)O)OC1C(O)C(O)CO` (stereo not drawn), the detection limit in data set [1] (conjugate with BNAH (Example 6)) and in data set [1] (conjugate with marker 4 (Example 4)) was 0.5 pmol in each case.
For the compound `CC(=O)NC1C(O)CC(OC2C(O)C(CO)OC(OC3C(CO)OC(O)C(O)C3O)C2O)(C(=O)O)OC1C(O)C(O)CO` [N-acetyl-neuraminosyl-2,3-D-lactose], the “inhibition of lectin signal” value in data set [2] is reported as “no inhibition”. Besides, the “signal strength, % of the value without inhibition” value was “about 50%” in data set [3] (200 pmol added) and “about 15%” in data set [3] (500 pmol added).
`NNC(=O)NCCNC(=O)c1ccccc1N=Nc1ccc(O)cc1` [marker 4, 2-[2'-(4"-hydroxybenzeneazo)-benzoic acid amido]-ethylsemicarbazide]: the “decomposition of the marker” value in data set [4] is given as “no decomposition”.

These data come from US6218546A, “Reagent for the detection and isolation of carbohydrates or glycan receptors” (Roche Diagnostics GmbH, priority 1995, dated 2001).
